According to PMC5794780, “ATP-dependent conformational change in ABC-ATPase RecF serves as a switch in DNA repair” (Scientific Reports, 2018):

Key:
TTERecF [1] = target: T1, TTERecF (Caldanaerobacter subterraneus, UniProt Q8RDL3, S282A); test: isothermal titration calorimetry; assay type: binding; settings: pH 7.0, 20 mM Tris-HCl, 200 mM NaCl, 25 °C; one-site model; signature motif mutant
T1 construct: gene recF; 42 kDa monomer, 84 kDa dimer with ATP or ATPγS

TTERecF [2] = target: T2, TTERecF (Caldanaerobacter subterraneus, UniProt Q8RDL3, K36A); test: isothermal titration calorimetry; assay type: binding
T2 construct: gene recF; 42 kDa monomer, 84 kDa dimer with ATP or ATPγS

TTERecF [3] = target: T3, TTERecF (Caldanaerobacter subterraneus, UniProt Q8RDL3, S37A); test: isothermal titration calorimetry; assay type: binding
T3 construct: gene recF; 42 kDa monomer, 84 kDa dimer with ATP or ATPγS

TTERecF [4] = target: T4, TTERecF (Caldanaerobacter subterraneus, UniProt Q8RDL3); test: isothermal titration calorimetry; assay type: binding
T4 construct: gene recF; 42 kDa monomer, 84 kDa dimer with ATP or ATPγS

TTERecF [5] = target: T5, TTERecF (Caldanaerobacter subterraneus, UniProt Q8RDL3, S283A); test: isothermal titration calorimetry; assay type: binding; settings: pH 7.0, 20 mM Tris-HCl, 200 mM NaCl, 25 °C; one-site model; signature motif mutant
T5 construct: gene recF; 42 kDa monomer, 84 kDa dimer with ATP or ATPγS

TTERecF [6] = target: T6, TTERecF (Caldanaerobacter subterraneus, UniProt Q8RDL3, Q286A); test: isothermal titration calorimetry; assay type: binding; settings: pH 7.0, 20 mM Tris-HCl, 200 mM NaCl, 25 °C; one-site model; signature motif mutant
T6 construct: gene recF; 42 kDa monomer, 84 kDa dimer with ATP or ATPγS

TTERecF [7] = target: T7, TTERecF (Caldanaerobacter subterraneus, UniProt Q8RDL3, G35A); test: isothermal titration calorimetry; assay type: binding; settings: pH 7.0, 20 mM Tris-HCl, 200 mM NaCl, 25 °C; one-site model; Walker A mutant
T7 construct: gene recF; 42 kDa monomer, 84 kDa dimer with ATP or ATPγS

TTERecF [8] = target: T8, TTERecF (Caldanaerobacter subterraneus, UniProt Q8RDL3, N38A); test: isothermal titration calorimetry; assay type: binding; settings: pH 7.0, 20 mM Tris-HCl, 200 mM NaCl, 25 °C; one-site model; Walker A mutant
T8 construct: gene recF; 42 kDa monomer, 84 kDa dimer with ATP or ATPγS

TTERecF-ATP dimer = target: T9, TTERecF-ATP dimer (Thermoanaerobacter tengcongensis MB4, UniProt Q8RDL3 1-364); test: BLI; ATP (1 mM in preincubation); kd 1.44E-03 s-1; BLI: 20 mM Tris-HCl pH 7.0, 200 mM NaCl, 0.05% Tween 20, 25 C; biotinylated DNA on streptavidin sensors; no Mg2+ stated; settings: protein: recombinant; tags: N-terminal His6; chain copies: 2; label: 5' biotin
T9 sequence: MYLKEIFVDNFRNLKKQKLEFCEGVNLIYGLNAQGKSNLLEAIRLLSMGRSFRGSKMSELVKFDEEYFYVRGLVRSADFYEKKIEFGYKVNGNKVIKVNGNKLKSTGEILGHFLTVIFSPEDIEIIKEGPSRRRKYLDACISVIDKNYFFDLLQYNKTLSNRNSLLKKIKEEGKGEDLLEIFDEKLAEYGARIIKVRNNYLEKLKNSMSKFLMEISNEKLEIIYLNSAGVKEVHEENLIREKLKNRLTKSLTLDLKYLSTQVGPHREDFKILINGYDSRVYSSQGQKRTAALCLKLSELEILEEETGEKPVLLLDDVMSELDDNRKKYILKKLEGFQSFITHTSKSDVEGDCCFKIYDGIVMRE

T3 sequence (Q8RDL3 whole entry S37A): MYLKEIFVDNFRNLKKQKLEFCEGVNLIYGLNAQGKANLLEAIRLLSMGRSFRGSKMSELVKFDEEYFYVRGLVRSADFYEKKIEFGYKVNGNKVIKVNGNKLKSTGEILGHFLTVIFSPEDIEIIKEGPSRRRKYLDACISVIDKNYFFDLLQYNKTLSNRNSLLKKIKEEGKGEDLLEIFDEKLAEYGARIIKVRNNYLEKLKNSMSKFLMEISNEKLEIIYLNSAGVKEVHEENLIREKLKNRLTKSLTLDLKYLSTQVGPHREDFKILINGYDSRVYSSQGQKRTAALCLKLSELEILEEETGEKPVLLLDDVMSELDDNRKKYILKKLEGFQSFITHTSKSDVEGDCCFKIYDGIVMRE
T1 sequence (Q8RDL3 whole entry S282A): as the sequence (Q8RDL3 whole entry S37A) above, with A37S, S282A counted along it
T5 sequence (Q8RDL3 whole entry S283A): as the sequence (Q8RDL3 whole entry S37A) above, with A37S, S283A counted along it
T7 sequence (Q8RDL3 whole entry G35A): as the sequence (Q8RDL3 whole entry S37A) above, with G35A, A37S counted along it
T2 sequence (Q8RDL3 whole entry K36A): as the sequence (Q8RDL3 whole entry S37A) above, with K36A, A37S counted along it
T6 sequence (Q8RDL3 whole entry Q286A): as the sequence (Q8RDL3 whole entry S37A) above, with A37S, Q286A counted along it
T8 sequence (Q8RDL3 whole entry N38A): as the sequence (Q8RDL3 whole entry S37A) above, with A37S, N38A counted along it

Nc1ncnc2c1ncn2[C@@H]1O[C@H](COP(=O)(O)OP(=O)(O)OP(=O)(O)O)[C@@H](O)[C@H]1O [ATP]
KD (TTERecF [1]): conserved mutant residues S282A, S283A, and Q286A in signature motif was similar
Kd (TTERecF [2]): 38 ± 8.7 µM
Kd (TTERecF [3]): 27 ± 7.9 µM
Kd (TTERecF [4]): 1.3 µM
KD (TTERecF [5]): conserved mutant residues S282A, S283A, and Q286A in signature motif was similar
KD (TTERecF [6]): conserved mutant residues S282A, S283A, and Q286A in signature motif was similar
hardly interacted (TTERecF [7]): The mutants G35A and N38A hardly interacted with ATP
hardly interacted (TTERecF [8]): The mutants G35A and N38A hardly interacted with ATP

Nc1ncnc2c1ncn2[C@@H]1O[C@H](CO[P@](=O)(O)O[P@](=O)(O)O[P@@](=O)(O)S)[C@@H](O)[C@H]1O [ATPɤS]
Kd (TTERecF [4]): 32 µM

ACCTTATGGAAAGCATCGTAG (ssDNA) [21mer ssDNA]
Kd (TTERecF-ATP dimer): 0.016 µM
